Earlier results in patent publication US20090092692A1, “The use of onion extracts to prevent and treat acute and chronic cardiac and vascular complications and their sequelae, as well as to resolve hematomas” (priority 2007, published 2009).

Tested on: platelet
Conditions: low doses of aspirin, vasoocclusive disease

Which results are given for CC(=O)Oc1ccccc1C(=O)O [aspirin, Acetyl salicylic acid]?
incidence of major haemorrhage: less than 1%; major outcome (death or further MI): approximately 60%
